This is an account of results in ChEMBL document CHEMBL1201862, “PubChem BioAssay data set” (2004).

Active and inactive are the calls of the source.

The target of assay [1] is T1, Bcl-2-related protein A1 (Mus musculus, UniProt Q07440).
T1 sequence (Q07440 whole entry): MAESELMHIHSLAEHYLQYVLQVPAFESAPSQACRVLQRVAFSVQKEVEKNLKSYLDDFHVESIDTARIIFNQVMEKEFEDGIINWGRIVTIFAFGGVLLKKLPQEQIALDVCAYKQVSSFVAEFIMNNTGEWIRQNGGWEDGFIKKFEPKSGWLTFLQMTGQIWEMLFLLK
The assay can be described thus: Bfl-1 inhibitors blocking BH3 peptide binding, confirmation, biochemical, TR-FRET, mouse Bfl-1 (AID 621).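 Further: TR-FRET binding of GST-Bfl-1 to FITC-labelled Bid peptide via terbium antibody.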 On the technique in general: In TR-FRET formats the signal depends on donor and acceptor labels being close together.

Assay [2] can be described thus: HepG2 cell cytotoxicity, dose response, cytotoxicity control, ATP luminescence, cherry-pick, activator set 2 (AID 1053143). Format: functional, cell-based.
The target in assay [3] is T1, Bcl-2-related protein A1. Nature of the assay: Bfl-1 binding inhibitors, SAR follow-up, biochemical, fluorescence polarization (AID 1070). (In fluorescence polarisation assays a small probe gives low polarisation when free and higher when bound to something large.)
Assay [4] deals with Cytochrome P450 3A4 (Homo sapiens, UniProt P08684).
Cytochrome P450 3A4, sequence (P08684 whole entry): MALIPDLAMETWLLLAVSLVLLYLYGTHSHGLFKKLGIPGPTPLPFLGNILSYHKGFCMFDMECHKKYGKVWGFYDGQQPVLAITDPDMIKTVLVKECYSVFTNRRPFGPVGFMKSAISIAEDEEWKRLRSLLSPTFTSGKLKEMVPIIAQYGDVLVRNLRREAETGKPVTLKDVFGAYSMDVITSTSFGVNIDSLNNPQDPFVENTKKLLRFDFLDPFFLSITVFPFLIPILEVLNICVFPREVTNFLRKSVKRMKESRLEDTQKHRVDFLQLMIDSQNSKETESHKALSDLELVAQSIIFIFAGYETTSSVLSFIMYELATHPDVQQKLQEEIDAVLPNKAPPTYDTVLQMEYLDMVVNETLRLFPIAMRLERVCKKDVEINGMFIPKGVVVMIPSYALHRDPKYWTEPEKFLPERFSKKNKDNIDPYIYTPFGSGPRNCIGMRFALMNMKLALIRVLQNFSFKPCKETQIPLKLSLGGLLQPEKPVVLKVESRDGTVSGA
Assay [5] deals with Induced myeloid leukemia cell differentiation protein Mcl-1 (Homo sapiens, UniProt Q07820). It is filed as functional.
Induced myeloid leukemia cell differentiation protein Mcl-1, sequence (Q07820 whole entry): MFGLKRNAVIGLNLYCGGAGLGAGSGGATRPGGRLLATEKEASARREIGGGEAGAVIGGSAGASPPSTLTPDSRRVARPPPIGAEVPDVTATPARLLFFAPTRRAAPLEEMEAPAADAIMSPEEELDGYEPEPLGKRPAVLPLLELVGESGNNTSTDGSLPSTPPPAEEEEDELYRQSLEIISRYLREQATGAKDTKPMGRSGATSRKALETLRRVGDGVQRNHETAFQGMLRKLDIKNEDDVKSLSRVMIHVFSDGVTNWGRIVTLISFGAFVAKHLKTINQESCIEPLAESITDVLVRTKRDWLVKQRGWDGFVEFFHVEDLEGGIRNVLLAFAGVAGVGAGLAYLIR
Assay [6] addresses fMet-Leu-Phe receptor (Homo sapiens, UniProt P21462). The assay can be described thus: FPR ligands, dose response (AID 519). It is filed as functional.
Assay [7] in a line: cells. It is filed as functional.
Assay [8] in a line: THP-1 cell cytotoxicity, dose response, cytotoxicity control for non-replicating M. tuberculosis project (AID 489025). It is filed as functional.
Assay [9] deals with T2, Microphthalmia-associated transcription factor (Homo sapiens, UniProt O75030).
T2 sequence (O75030 whole entry): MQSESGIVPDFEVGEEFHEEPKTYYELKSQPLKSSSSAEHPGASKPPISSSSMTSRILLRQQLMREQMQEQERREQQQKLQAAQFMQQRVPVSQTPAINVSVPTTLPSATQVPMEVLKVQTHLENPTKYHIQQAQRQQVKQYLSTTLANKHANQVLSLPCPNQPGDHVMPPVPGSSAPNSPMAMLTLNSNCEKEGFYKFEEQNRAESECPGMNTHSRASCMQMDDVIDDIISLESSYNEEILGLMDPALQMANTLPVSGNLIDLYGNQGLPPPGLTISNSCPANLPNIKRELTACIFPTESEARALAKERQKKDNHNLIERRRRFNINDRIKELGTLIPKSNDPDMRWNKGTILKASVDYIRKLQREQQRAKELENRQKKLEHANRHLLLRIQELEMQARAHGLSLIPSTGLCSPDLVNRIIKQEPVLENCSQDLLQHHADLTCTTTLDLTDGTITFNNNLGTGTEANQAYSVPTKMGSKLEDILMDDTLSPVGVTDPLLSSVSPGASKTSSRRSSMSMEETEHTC
The assay can be described thus: TRPM1 promoter luciferase signal decrease, dose response, MITF inhibitor project, cell-based, SK-MEL-5, cherry-picked, set 3 (AID 493073).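 Further: SK-MEL-5 melanoma cells with luciferase driven by the MITF target TRPM1 promoter.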 Format: functional.

Assay [10] is described as follows: Vero E6 cell cytotoxicity, dose response, cytotoxicity control for non-replicating M. tuberculosis project, secondary assay (AID 492998). Format: functional, VeroE6. As to conditions: Vero C1008.
The nature of assay [11]: HepG2 cell cytotoxicity, dose response, cytotoxicity control for non-replicating M. tuberculosis project (AID 489018). It is filed as functional. As to conditions: Mycobacterium tuberculosis.
Assay [12] has as its target Paired box protein Pax-8 (Homo sapiens, UniProt Q06710). The assay can be described thus: inhibitors of PAX8-driven TPO luciferase reporter, dose response, RMG-I cells, cherry-pick (AID 687027).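 Further: luciferase reporter driven by Pax8 target thyroperoxidase promoter measured by SteadyGlo luminescence.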 It is filed as functional, cell-based.
Assay [13] is described as follows: inhibitors of PGC1a acetylation in cells, dose response, cell-based, cherry-picked samples (AID 720514).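 Further: potency may reflect raised or lowered acetylation signal.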 Format: functional.
Assay [14] has as its target Caspase-6 (Homo sapiens, UniProt P55212). Nature of the assay: human caspase-6 inhibitors, dose response, biochemical, VEID-R110 fluorescence, cherry-pick (AID 720632).
Assay [15] is described as follows: Luminescence-based cell-based high throughput dose response assay to identify activators of the DAF-12 from the parasite S. stercoralis (ssDAF-12). Format: functional.
The target of assay [16] is T3, Oxysterols receptor LXR-beta (Homo sapiens, UniProt P55055).
T3 sequence (P55055 whole entry): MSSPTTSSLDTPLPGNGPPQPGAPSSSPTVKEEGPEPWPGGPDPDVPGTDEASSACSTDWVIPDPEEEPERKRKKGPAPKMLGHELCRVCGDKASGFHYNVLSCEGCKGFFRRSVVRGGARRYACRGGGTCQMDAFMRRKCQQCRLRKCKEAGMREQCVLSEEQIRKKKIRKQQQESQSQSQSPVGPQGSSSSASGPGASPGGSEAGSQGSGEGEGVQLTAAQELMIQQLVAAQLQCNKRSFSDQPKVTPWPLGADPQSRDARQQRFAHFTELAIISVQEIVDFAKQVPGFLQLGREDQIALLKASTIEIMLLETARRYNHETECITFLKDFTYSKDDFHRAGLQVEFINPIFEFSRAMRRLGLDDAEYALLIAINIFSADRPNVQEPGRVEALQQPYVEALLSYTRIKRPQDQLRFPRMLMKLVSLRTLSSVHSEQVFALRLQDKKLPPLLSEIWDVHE
Nature of the assay: LXR agonists, Gal4 luciferase reporter, dose response, counter-screen for ssDAF-12 agonist project, cell-based, luminescence, HEK293, S. stercoralis campaign (AID 720737). It is filed as functional. As to conditions: read-out: IC50 (the source's name). Background: Reporter assays use an easily measured gene product as a stand-in for the process of interest.

The nature of assay [17]: MC4R antagonists, dose response, counter-screen for LGR2 antagonist project, cell-based, plate reader, cherry pick (AID 743444).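 Further: transfected HEK 293 cells stimulated with alpha-MSH peptide; potency of inhibitors of the alpha-MSH evoked signal.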 Format: functional.
A short description of assay [18]: HEK293 cell cytotoxicity, dose response, cytotoxicity control, plate reader, cherry-picked samples (AID 743446). It is filed as functional, cell-based.
A short description of assay [19]: LGR2 antagonists, dose response, cell-based, HEK293, CRE-luciferase reporter, cherry pick, set 2 (AID 743343).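 Further: transfected cells were stimulated with diluted bursicon conditioned medium after compound addition.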 Format: functional.

fMet-Leu-Phe receptor, sequence (P21462 whole entry): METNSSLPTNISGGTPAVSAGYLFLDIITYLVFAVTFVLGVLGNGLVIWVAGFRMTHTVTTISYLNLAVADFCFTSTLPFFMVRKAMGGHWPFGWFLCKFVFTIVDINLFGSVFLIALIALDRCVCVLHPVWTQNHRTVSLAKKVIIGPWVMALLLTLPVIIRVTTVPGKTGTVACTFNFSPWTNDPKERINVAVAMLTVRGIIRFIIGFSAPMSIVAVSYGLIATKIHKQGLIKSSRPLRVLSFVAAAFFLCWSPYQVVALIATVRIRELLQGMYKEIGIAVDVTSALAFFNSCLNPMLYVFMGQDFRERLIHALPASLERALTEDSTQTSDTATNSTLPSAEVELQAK
Caspase-6, sequence (P55212 24-179 limits assumed): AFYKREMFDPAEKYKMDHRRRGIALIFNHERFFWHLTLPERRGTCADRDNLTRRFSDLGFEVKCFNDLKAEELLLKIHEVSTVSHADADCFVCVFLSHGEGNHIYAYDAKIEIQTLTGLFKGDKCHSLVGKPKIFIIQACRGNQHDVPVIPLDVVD
Caspase-6, sequence (P55212 194-293 limits assumed): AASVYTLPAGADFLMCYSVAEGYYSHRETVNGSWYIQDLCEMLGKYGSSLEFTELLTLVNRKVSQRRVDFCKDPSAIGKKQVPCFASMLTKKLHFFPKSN
Paired box protein Pax-8, sequence (Q06710 whole entry): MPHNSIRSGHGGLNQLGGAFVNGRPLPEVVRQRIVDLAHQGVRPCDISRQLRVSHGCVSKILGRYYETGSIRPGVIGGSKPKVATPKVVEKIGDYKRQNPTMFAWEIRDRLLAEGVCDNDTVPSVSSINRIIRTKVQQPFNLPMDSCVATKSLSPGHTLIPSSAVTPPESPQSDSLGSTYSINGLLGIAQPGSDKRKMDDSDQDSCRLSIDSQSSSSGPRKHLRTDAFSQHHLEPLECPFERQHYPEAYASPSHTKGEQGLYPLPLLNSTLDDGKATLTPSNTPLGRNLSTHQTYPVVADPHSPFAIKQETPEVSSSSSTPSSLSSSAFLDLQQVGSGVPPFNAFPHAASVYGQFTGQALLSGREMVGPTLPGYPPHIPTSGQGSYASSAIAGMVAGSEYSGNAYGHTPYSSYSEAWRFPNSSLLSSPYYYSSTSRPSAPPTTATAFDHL

By IC50 is commonly meant the concentration needed to halve the response being measured. What is called AC50 is the midpoint of the concentration-response curve, whichever way the signal moves. In the case of `COc1ncccc1-c1nnn(-c2ccc(F)cc2)n1`, the half-inhibitory concentration (IC50) in [1] and in [3] was > 100 µM (not active) throughout. In addition, the AC50 in [2] was 26 µM (active).

Usually Ki stands for the equilibrium dissociation constant of an inhibitor or competing ligand from its target. `O=C(NC1CCCCC1)c1sc(=S)n2c1[nH]c(=O)c1ccccc12`: the AC50 in assay [4] is 0.794 µM (inconclusive). Moreover, the IC50 in assay [5] is > 54 µM (active). For the same molecule, in assay [6], the Ki was 40.6 µM (inactive).

For `Cc1cccc(C2CC(c3ccc(Cl)cc3)Nc3nc(N)nn32)c1` (stereo not drawn), the Ki in [6] is > 66.7 µM (inactive).

For orientation: CC50 means the concentration at which the toxic effect on the cells reaches its halfway point. On to `Cn1nnnc1Sc1ncnc2scc(-c3ccc[nH]3)c12`, for which, in assay [7], the IC50 is 15.2 µM (active). Besides, the CC50 is 14.8 µM (active) in assay [8], 13 µM (active) in assay [10] and 15.8 µM (active) in assay [11]. Moreover, the AC50 was 7.32 µM (active) in assay [9], 2.96 µM (active) in assay [12] and 7.84 µM (active) in [13].

As to `CCOc1ccc2oc(C(=O)Nc3cc(C)ccn3)c(C)c2c1`, in assay [2], the AC50 was 26 µM (active).

For `O=Cc1ccc(Oc2nc(Cl)ncc2F)cc1`, in [14], the AC50 was 9.13 µM (active).

For the molecule `O=C(Cc1c[nH]c2ccccc12)NNCc1ccc(N(CCCl)CCCl)cc1`, the IC50 in assay [15] is > 67.5 µM (inactive). Besides, the EC50 in assay [16] was > 67.5 µM (inactive).

Consider `CC(C)N(C)c1ncnc2c1ncn2[C@H]1CN(Cc2cccnc2)C[C@@H](CO)O1`, for which the IC50 in assay [15] was > 67.5 µM (inactive). The EC50 in [16] was > 67.5 µM (inactive).

As for `FC(F)(F)c1cccc(CC2CN(Cc3ccccc3)Cc3ccccc3N2c2cc(Cl)cc(Cl)c2)c1` (stereo not drawn), the figures for the AC50 in assay [17], in assay [18] and in [19] were 12.5 µM (active), > 52 µM (inactive) and 22.2 µM (active), respectively.
